{"source": "patent US8143260B2", "about": "“Tricyclic amine compound” (Research Foundation Itsuu Laboratory, priority 2007, dated 2012)", "tested_on": "human acute promyelocytic leukemia cell strain HL-60", "assay": "Differentiation induction of HL-60 cells (NBT-reducing ability); enhancement of the retinoid action of Am80", "assay_type": "cell-based", "conditions": "for Differentiation induction ratio (%), Am80 1 nM + Test compound: four days; for Differentiation induction ratio (%), Test compound alone: test compound alone 100 nM", "procedure": "Cells of human acute promyelocytic leukemia cell strain HL-60 were cultured in a CO2 incubator (5% CO2, 37° C.) using the RPMI medium containing 5% FBS. Differentiation inducing action on the HL-60 cells induced by 4-[(5,6,7,8-tetrahydro-5,5,8,8-tetramethyl-2-naphthalenyl)carbamoyl]benzoic acid (Am80) was evaluated on the basis of ability to reduce nitroblue tetrazolium (NBT) determined by observing differentiation from promyelocytic cells into granulocytic cells as an index. The cells that entered into the logarithmic phase and reached a substantially confluent state were centrifuged at 1000 rpm for 5 minutes, and the culture supernatant was removed. The cell pellet was suspended in fresh RPMI medium containing 5% FBS at a density of 8.0×10^4 cells/ml, then the suspension was added with a test compound dissolved in DMSO at an intended concentration, and the cells were cultured for four days and then used for the experiment. The samples were prepared so as to have the same DMSO concentration.\nCell count of the cells after the culture for a predetermined period was determined by a cell counting method using a blood cell counting chamber. The NBT-reducing ability was obtained as follows. NBT was dissolved in phosphate buffered saline (PBS(−)) at a concentration of 0.2%, and the solution was added with an equivalent volume of the RPMI medium containing 5% FBS. The mixture was added with phorbol 12-myristate 13-acetate (tPA) at a concentration of 0.2 μM (about 200 ng) to prepare a reagent solution. The collected cells were centrifuged at 1000 rpm for 5 minutes, the supernatant was removed, and the remained cell pellet was added with the reagent solution. The mixture was incubated on a water bath at 37° C. for 20 minutes, and then NBT-reduced stained positive cells were counted by using the counting chamber to calculate a differentiation induction ratio. The same test was performed with allowing the compounds of the present invention prepared in the aforementioned examples (all were carboxylic acid compounds) to coexist with Am80 to confirm action of the compounds of the present invention for enhancing the retinoid action of Am80. As a compound having a retinoid action enhancing action (positive control), 4-[2,3-(2,5-dimethyl-2,5-hexano)dibenzo[b,f][1,4]thiazepin-11-yl]benzoic acid (HX630, Japanese Patent Unexamined Publication No. 10-59951) was used.", "key": {"[1]": {"conditions": "Am80 1 nM + test compound 1 × 10^−7M"}, "[2]": {"conditions": "Am80 1 nM + test compound 1 × 10^−8M"}, "[3]": {"conditions": "Am80 1 nM + test compound 1 × 10^−9M"}, "[4]": {"conditions": "cultured four days, NBT-positive cells"}}, "note": "“And” between values parts separate entries of the source, which are not always exact repeats. Equal values may be shown once."}
{"smiles": "CC1(C)CCC(C)(C)c2cc(NC(=O)c3ccc(C(=O)O)cc3)ccc21", "note": "[Am80, 4-[(5,6,7,8-tetrahydro-5,5,8,8-tetramethyl-2-naphthalenyl)carbamoyl]benzoic acid, reference compound]", "values": [{"measurement": "Differentiation induction ratio (%), Am80 alone", "setting": "Am80 alone 1 nM, cultured four days, NBT-positive cells", "result": "16.9% and 15.9%"}]}
{"smiles": "CCN(c1ccc(C(=O)O)cc1)c1cc2c3c(c1)CCCC3CCC2", "note": "[Example 3, 4-[N-Ethyl-(5,6,6a,7,8,9-hexahydro-4H-2-phenalenyl)amino]benzoic acid]", "values": [{"measurement": "Differentiation induction ratio (%), Am80 1 nM + Test compound", "setting": "[1]", "result": 25.8, "unit": "%"}, {"measurement": "Differentiation induction ratio (%), Am80 1 nM + Test compound", "setting": "[2]", "result": 26.4, "unit": "%"}, {"measurement": "Differentiation induction ratio (%), Am80 1 nM + Test compound", "setting": "[3]", "result": 20.5, "unit": "%"}, {"measurement": "Differentiation induction ratio (%), Test compound alone", "setting": "[4]", "result": 1.5, "unit": "%"}]}
{"smiles": "O=C(O)c1ccc(N(CC2CC2)c2cc3c4c(c2)CCCC4CCC3)cc1", "note": "[Example 4, 4-[N-Cyclopropylmethyl-(5,6,6a,7,8,9-hexahydro-4H-2-phenalenyl)amino]benzoic acid]", "values": [{"measurement": "Differentiation induction ratio (%), Am80 1 nM + Test compound", "setting": "[1]", "result": 82.9, "unit": "%"}, {"measurement": "Differentiation induction ratio (%), Am80 1 nM + Test compound", "setting": "[2]", "result": 37.5, "unit": "%"}, {"measurement": "Differentiation induction ratio (%), Am80 1 nM + Test compound", "setting": "[3]", "result": 23.9, "unit": "%"}, {"measurement": "Differentiation induction ratio (%), Test compound alone", "setting": "[4]", "result": 1.9, "unit": "%"}]}
{"smiles": "CCN(c1ccc(C(=O)O)cc1)c1cc2c3c(c1)CCCCC3CCCC2", "note": "[Example 19, 4-[N-Ethyl-(5,6,7,7a,8,9,10,11-octahydro-4H-2-benzo[ef]heptalenyl)amino]benzoic acid]", "values": [{"measurement": "Differentiation induction ratio (%), Am80 1 nM + Test compound", "setting": "[1]", "result": 85.4, "unit": "%"}, {"measurement": "Differentiation induction ratio (%), Am80 1 nM + Test compound", "setting": "[2]", "result": 44.6, "unit": "%"}, {"measurement": "Differentiation induction ratio (%), Am80 1 nM + Test compound", "setting": "[3]", "result": 31.8, "unit": "%"}, {"measurement": "Differentiation induction ratio (%), Test compound alone", "setting": "[4]", "result": 2.2, "unit": "%"}]}
{"smiles": "O=C(O)c1ccc(N(CC2CC2)c2cc3c4c(c2)CCCCC4CCCC3)cc1", "note": "[Example 20, 4-[N-Cyclopropylmethyl-(5,6,7,7a,8,9,10,11-octahydro-4H-2-benzo[ef]heptalenyl)amino]benzoic acid]", "values": [{"measurement": "Differentiation induction ratio (%), Am80 1 nM + Test compound", "setting": "[1]", "result": 89.8, "unit": "%"}, {"measurement": "Differentiation induction ratio (%), Am80 1 nM + Test compound", "setting": "[2]", "result": 54.8, "unit": "%"}, {"measurement": "Differentiation induction ratio (%), Am80 1 nM + Test compound", "setting": "[3]", "result": 35.2, "unit": "%"}, {"measurement": "Differentiation induction ratio (%), Test compound alone", "setting": "[4]", "result": 1.4, "unit": "%"}]}
{"smiles": "CC1(C)CCC(C)(C)c2cc3c(cc21)Sc1ccccc1N=C3c1ccc(C(=O)O)cc1", "note": "[HX630, 4-[2,3-(2,5-dimethyl-2,5-hexano)dibenzo[b,f][1,4]thiazepin-11-yl]benzoic acid, reference compound]", "values": [{"measurement": "Differentiation induction ratio (%), Am80 1 nM + Test compound", "setting": "[1]", "result": 72.3, "unit": "%"}, {"measurement": "Differentiation induction ratio (%), Am80 1 nM + Test compound", "setting": "[2]", "result": 27.8, "unit": "%"}, {"measurement": "Differentiation induction ratio (%), Am80 1 nM + Test compound", "setting": "[3]", "result": 20.4, "unit": "%"}, {"measurement": "Differentiation induction ratio (%), Test compound alone", "setting": "[4]", "result": 1.6, "unit": "%"}]}
